Measured values as given in patent US20230167073A1 (Teijin Pharma Limited, priority 2020, published 2023).

Target: T1, Human TRPC6 (Homo sapiens, UniProt Q9Y210)
T1 construct: expressed in transfected cells
T1 sequence (Q9Y210 1-931): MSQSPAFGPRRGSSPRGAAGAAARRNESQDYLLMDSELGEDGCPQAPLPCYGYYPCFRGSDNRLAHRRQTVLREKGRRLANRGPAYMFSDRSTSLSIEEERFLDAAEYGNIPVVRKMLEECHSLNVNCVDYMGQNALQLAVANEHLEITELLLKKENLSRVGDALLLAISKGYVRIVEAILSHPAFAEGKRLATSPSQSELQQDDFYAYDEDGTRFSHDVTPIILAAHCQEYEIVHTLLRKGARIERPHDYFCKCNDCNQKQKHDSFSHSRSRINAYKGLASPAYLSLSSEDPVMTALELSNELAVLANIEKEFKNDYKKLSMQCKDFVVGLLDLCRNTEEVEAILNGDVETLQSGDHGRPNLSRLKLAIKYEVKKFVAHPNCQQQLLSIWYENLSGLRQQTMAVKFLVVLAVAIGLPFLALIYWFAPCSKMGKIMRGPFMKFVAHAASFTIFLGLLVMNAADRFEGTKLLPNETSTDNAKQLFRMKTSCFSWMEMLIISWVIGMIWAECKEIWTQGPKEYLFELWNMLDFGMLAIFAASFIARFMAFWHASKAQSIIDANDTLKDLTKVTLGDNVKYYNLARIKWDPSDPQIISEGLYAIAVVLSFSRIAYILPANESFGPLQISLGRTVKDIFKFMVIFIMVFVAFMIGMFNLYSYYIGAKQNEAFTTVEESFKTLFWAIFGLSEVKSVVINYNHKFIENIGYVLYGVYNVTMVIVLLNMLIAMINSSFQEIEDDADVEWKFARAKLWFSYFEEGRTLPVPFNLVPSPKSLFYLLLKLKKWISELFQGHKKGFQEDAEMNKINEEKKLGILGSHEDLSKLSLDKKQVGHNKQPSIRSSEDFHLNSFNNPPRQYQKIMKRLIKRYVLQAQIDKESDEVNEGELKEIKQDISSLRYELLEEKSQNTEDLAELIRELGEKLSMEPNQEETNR
Test: Evaluation of TRPC6 channel inhibitory activity (1), FLIPR Calcium 5 Assay Kit, OAG stimulation (Compound Nos. 1-1293)
Assay type: cell-based
Conditions: Human TRPC6 stably-expressing cells, OAG 30 μM, FLIPR Calcium 5 Assay Kit; read-out: Inhibitory activity (pIC50 class) (converted)
Summary of the method: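 The FLIPR signal is maximum fluorescence after 30 μM OAG minus minimum before compound, measured in a human TRPC6 stable line loaded with Calcium 5 dye. Compounds were preincubated 20 min. pIC50 came from four-parameter logistic fitting of inhibition rates and is given as symbol ranges.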

Row | IC50 [µM] | Structure (SMILES)
1 | 0.01 to 1 | N#Cc1ccc(-c2ccc(CCN)cn2)c(Sc2cnnc(N3CCOCC3)c2)c1 [compound 1242, 4-[5-(2-aminoethyl)pyridin-2-yl]-3-(6-morpholin-4-ylpyridazin-4-yl)sulfanylbenzonitrile]
2 | 0.01 to 1 | N#Cc1ccc(-n2cc(CCN)cn2)c(Sc2cnnc(N3CCOCC3)c2)c1 [compound 1245, 4-[4-(2-aminoethyl)pyrazol-1-yl]-3-(6-morpholin-4-ylpyridazin-4-yl)sulfanylbenzonitrile]
3 | 0.01 to 1 | N#Cc1ccc(-n2cc(CCN)cn2)c(Sc2cnnc(N3CCCC3)c2)c1 [compound 1247, 4-[4-(2-aminoethyl)pyrazol-1-yl]-3-(6-pyrrolidin-1-ylpyridazin-4-yl)sulfanylbenzonitrile]
4 | < 0.01 | Cc1nc(Sc2cc(C#N)ccc2-c2ccc(CCN)cn2)cc(N2CCCCC2)n1 [compound 1249, 4-[5-(2-aminoethyl)pyridin-2-yl]-3-(2-methyl-6-piperidin-1-ylpyrimidin-4-yl)sulfanylbenzonitrile]
5 | 0.01 to 1 | Cc1nc(Sc2cc(C#N)ccc2-n2cc(CCN)cn2)cc(N2CCOCC2)n1 [compound 1251, 4-[4-(2-aminoethyl)pyrazol-1-yl]-3-(2-methyl-6-morpholin-4-ylpyrimidin-4-yl)sulfanylbenzonitrile]
6 | 0.01 to 1 | Cc1nc(Sc2cc(C#N)ccc2-n2cc(CCN)cn2)cc(N2CCCC2)n1 [compound 1253, 4-[4-(2-aminoethyl)pyrazol-1-yl]-3-(2-methyl-6-pyrrolidin-1-ylpyrimidin-4-yl)sulfanylbenzonitrile]
7 | 0.01 to 1 | N#Cc1ccc(-c2ncc(CCN)cn2)c(Sc2cnnc(N3CCOCC3)c2)c1 [compound 1257, 4-[5-(2-aminoethyl)pyrimidin-2-yl]-3-(6-morpholin-4-ylpyridazin-4-yl)sulfanylbenzonitrile]
8 | < 0.01 | N#Cc1ccc(-c2ncc(CCN)cn2)c(Sc2cnnc(N3CCCCC3)c2)c1 [compound 1258, 4-[5-(2-aminoethyl)pyrimidin-2-yl]-3-(6-piperidin-1-ylpyridazin-4-yl)sulfanylbenzonitrile]
9 | 0.01 to 1 | Cc1cc(Sc2cc(C#N)ccc2-c2ncc(CCN)cn2)cc(N2CCOCC2)n1 [compound 1260, 4-[5-(2-aminoethyl)pyrimidin-2-yl]-3-(2-methyl-6-morpholin-4-ylpyridin-4-yl)sulfanylbenzonitrile]
10 | > 1 | Cc1cc(Sc2cc(C#N)ccc2-c2ncc(CN)cn2)cc(N2CCOCC2)n1 [compound 1261, 4-[5-(aminomethyl)pyrimidin-2-yl]-3-(2-methyl-6-morpholin-4-ylpyridin-4-yl)sulfanylbenzonitrile]
11 | > 1 | Cc1nc(Sc2cc(C#N)ccc2-c2ncc(CN)cn2)cc(N2CCCC2)n1 [compound 1262, 4-[5-(aminomethyl)pyrimidin-2-yl]-3-(2-methyl-6-pyrrolidin-1-ylpyrimidin-4-yl)sulfanylbenzonitrile]
12 | > 1 | Cc1nc(Sc2cc(C#N)ccc2-c2ncc(CN)cn2)cc(N(C)C)n1 [compound 1263, 4-[5-(aminomethyl)pyrimidin-2-yl]-3-[6-(dimethylamino)-2-methylpyrimidin-4-yl]sulfanylbenzonitrile]
13 | 0.01 to 1 | N#Cc1ccc(-c2ccc(CN)cn2)c(Sc2cnnc(N3CCCC3)c2)c1 [compound 1264, 4-[5-(aminomethyl)pyridin-2-yl]-3-(6-pyrrolidin-1-ylpyridazin-4-yl)sulfanylbenzonitrile]
14 | 0.01 to 1 | N#Cc1ccc(-c2ncc(CN)cn2)c(Sc2cnnc(N3CCCC3)c2)c1 [compound 1265, 4-[5-(aminomethyl)pyrimidin-2-yl]-3-(6-pyrrolidin-1-ylpyridazin-4-yl)sulfanylbenzonitrile]
15 | > 1 | N#Cc1ccc(-c2ncc(CN)cn2)c(Sc2nnc(N3CCOCC3)s2)c1 [compound 1271, 4-[5-(aminomethyl)pyrimidin-2-yl]-3-[(5-morpholin-4-yl-1,3,4-thiadiazol-2-yl)sulfanyl]benzonitrile]
16 | 0.01 to 1 | CC(C)CNc1cc(Sc2cc(C#N)ccc2-c2ncc(CN)cn2)cnn1 [compound 1273, 4-[5-(aminomethyl)pyrimidin-2-yl]-3-[6-(2-methylpropylamino)pyridazin-4-yl]sulfanylbenzonitrile]

More lines, now with the values behind:

Row | Structure (SMILES) | IC50 [µM]
17 | N#Cc1ccc(-c2ccc(CCN)cn2)c(Sc2cnnc(N3CCCCC3)c2)c1 [compound 1243, 4-[5-(2-aminoethyl)pyridin-2-yl]-3-(6-piperidin-1-ylpyridazin-4-yl)sulfanylbenzonitrile] | < 0.01
18 | N#Cc1ccc(-c2ccc(CCN)cn2)c(Sc2cnnc(N3CCCC3)c2)c1 [compound 1244, 4-[5-(2-aminoethyl)pyridin-2-yl]-3-(6-pyrrolidin-1-ylpyridazin-4-yl)sulfanylbenzonitrile] | < 0.01
19 | Cc1nc(Sc2cc(C#N)ccc2-c2ccc(CCN)cn2)cc(N2CCOCC2)n1 [compound 1248, 4-[5-(2-aminoethyl)pyridin-2-yl]-3-(2-methyl-6-morpholin-4-ylpyrimidin-4-yl)sulfanylbenzonitrile] | 0.01 to 1
20 | Cc1nc(Sc2cc(C#N)ccc2-c2ccc(CCN)cn2)cc(N2CCCC2)n1 [compound 1250, 4-[5-(2-aminoethyl)pyridin-2-yl]-3-(2-methyl-6-pyrrolidin-1-ylpyrimidin-4-yl)sulfanylbenzonitrile] | 0.01 to 1
21 | Cc1nc(Sc2cc(C#N)ccc2-n2cc(CCN)cn2)cc(N2CCCCC2)n1 [compound 1252, 4-[4-(2-aminoethyl)pyrazol-1-yl]-3-(2-methyl-6-piperidin-1-ylpyrimidin-4-yl)sulfanylbenzonitrile] | 0.01 to 1
22 | Cc1nc(Sc2cc(C#N)ccc2-c2ncc(CCN)cn2)cc(N2CCOCC2)n1 [compound 1254, 4-[5-(2-aminoethyl)pyrimidin-2-yl]-3-(2-methyl-6-morpholin-4-ylpyrimidin-4-yl)sulfanylbenzonitrile] | 0.01 to 1
23 | Cc1nc(Sc2cc(C#N)ccc2-c2ncc(CCN)cn2)cc(N2CCCCC2)n1 [compound 1255, 4-[5-(2-aminoethyl)pyrimidin-2-yl]-3-(2-methyl-6-piperidin-1-ylpyrimidin-4-yl)sulfanylbenzonitrile] | < 0.01
24 | Cc1nc(Sc2cc(C#N)ccc2-c2ncc(CCN)cn2)cc(N2CCCC2)n1 [compound 1256, 4-[5-(2-aminoethyl)pyrimidin-2-yl]-3-(2-methyl-6-pyrrolidin-1-ylpyrimidin-4-yl)sulfanylbenzonitrile] | 0.01 to 1
25 | N#Cc1ccc(-c2ncc(CCN)cn2)c(Sc2cnnc(N3CCCC3)c2)c1 [compound 1259, 4-[5-(2-aminoethyl)pyrimidin-2-yl]-3-(6-pyrrolidin-1-ylpyridazin-4-yl)sulfanylbenzonitrile] | < 0.01
26 | CN(C)c1cc(Sc2cc(C#N)ccc2-c2ccc(CN)cn2)cnn1 [compound 1266, 4-[5-(aminomethyl)pyridin-2-yl]-3-[6-(dimethylamino)pyridazin-4-yl]sulfanylbenzonitrile] | 0.01 to 1
27 | CN(C)c1cc(Sc2cc(C#N)ccc2-c2ncc(CN)cn2)cnn1 [compound 1267, 4-[5-(aminomethyl)pyrimidin-2-yl]-3-[6-(dimethylamino)pyridazin-4-yl]sulfanylbenzonitrile] | > 1
28 | N#Cc1ccc(-c2ncc(CN)cn2)c(Sc2cnnc(N3CCCCC3)c2)c1 [compound 1268, 4-[5-(aminomethyl)pyrimidin-2-yl]-3-(6-piperidin-1-ylpyridazin-4-yl)sulfanylbenzonitrile] | 0.01 to 1
29 | N#Cc1ccc(-c2ncc(CN)cn2)c(Sc2nnc(N3CCCCC3)s2)c1 [compound 1269, 4-[5-(aminomethyl)pyrimidin-2-yl]-3-[(5-piperidin-1-yl-1,3,4-thiadiazol-2-yl)sulfanyl]benzonitrile] | > 1
30 | N#Cc1ccc(-c2ncc(CCN)cn2)c(Sc2nnc(N3CCCCC3)s2)c1 [compound 1270, 4-[5-(2-aminoethyl)pyrimidin-2-yl]-3-[(5-piperidin-1-yl-1,3,4-thiadiazol-2-yl)sulfanyl]benzonitrile] | 0.01 to 1
31 | CC(C)Nc1cc(Sc2cc(C#N)ccc2-c2ncc(CN)cn2)cnn1 [compound 1272, 4-[5-(aminomethyl)pyrimidin-2-yl]-3-[6-(propan-2-ylamino)pyridazin-4-yl]sulfanylbenzonitrile] | 0.01 to 1
32 | N#Cc1ccc(-c2ncc(CCN)cn2)c(Sc2sc(-c3ccccc3)nc2C#N)c1 [compound 1274, 5-[2-[5-(2-aminoethyl)pyrimidin-2-yl]-5-cyanophenyl]sulfanyl-2-phenyl-1,3-thiazole-4-carbonitrile] | 0.01 to 1
